Reference: ChEMBL document CHEMBL5390277, “Development of N-Terminally Modified Variants of the CXCR4-Antagonistic Peptide EPI-X4 for Enhanced Plasma Stability” (J Med Chem, 2023)
Square brackets hold non-standard residues; d marks the D form. Peptide text beside a SMILES is read from it.

Columns and labels:
[1] = target: T1, C-X-C chemokine receptor type 4 (Homo sapiens, UniProt P61073); assay: Displacement of 12G5 mAb from CXCR4 in human SUP-T1 cells incubated for 2 hrs by flow cytometry analysis; assay type: cell-based
[2] = target: T1, C-X-C chemokine receptor type 4; assay: Antagonist activity at CXCR4 in human SUP-T1 cells assessed as inhibition of CXCL12-induced ERK phosphorylation preincubated with 15 mins followed by CXCL12 stimulation and measured after 12 mins by flow cytometry analysis; assay type: functional, cell-based
[3] = test system: Human immunodeficiency virus 1; assay: Antiviral activity against HIV-1 NL4-3 infected in human TZM-bl cells assessed as inhibition of viral replication preincubated for 15 mins followed by viral infection and measured after 4320 mins by beta-gal screening assay; assay type: functional, organism-based; conditions: Human immunodeficiency virus 1, NL4-3, TZM
SUP-T1 = assay: Inhibition of cell migration in human SUP-T1 cells assessed as inhibition of CXCL12 mediated cell migration incubated for 4 hrs in presence of chemoattractant, CXCL12 by Transwell based CellTiter-Glo-chemotaxis assay; assay type: functional
[4] = Toxicity in Zebrafish embryo incubated for 24 hrs by microscopic analysis; parameters: species or system Danio rerio; conditions: in vivo
[5] = target: T1, C-X-C chemokine receptor type 4; assay: Antagonist activity at CXCR4 (unknown origin) expressed in human HEK293T cells co-expressing SmBiT-beta-arrestin2 preincubated with compound for 10 mins followed by CXCL12 stimulation and measured for 120 mins by beta-arrestin2 recruitment based NanoBiT assay; assay type: functional, cell-based

T1 sequence (P61073 whole entry): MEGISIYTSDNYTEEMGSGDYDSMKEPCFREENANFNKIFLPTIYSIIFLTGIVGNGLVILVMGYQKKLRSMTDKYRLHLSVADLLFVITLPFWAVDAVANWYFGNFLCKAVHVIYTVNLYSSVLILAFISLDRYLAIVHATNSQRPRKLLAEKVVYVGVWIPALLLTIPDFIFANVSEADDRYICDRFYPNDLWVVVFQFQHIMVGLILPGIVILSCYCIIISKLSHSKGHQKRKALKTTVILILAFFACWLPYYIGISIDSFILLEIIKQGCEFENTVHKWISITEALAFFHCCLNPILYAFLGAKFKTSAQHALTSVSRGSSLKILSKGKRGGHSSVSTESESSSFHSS

| SMILES | IC50 [1] | IC50 [2] | IC50 [3] | inhibition (SUP-T1) | Activity [4] | IC50 [5] |
| --- | --- | --- | --- | --- | --- | --- |
| CSCC[C@H](NC(=O)[C@H](CCCCN)NC(=O)[C@H](CCCNC(=N)N)NC(=O)[C@H](CO)NC(=O)[C@H](Cc1c[nH]c2ccccc12)NC(=O)[C@H](CCCNC(=N)N)NC(=O)[C@@H](CC(C)C)NC(=O)[C@@H](N)CCSC)C(=O)N1CCC[C@H]1C(=O)N[C@@H](CS)C(=O)N[C@H](C(=O)N[C@@H](CO)C(=O)O)C(C)C | 824 nM |  |  |  |  |  |
| CSCC[C@H](NC(=O)[C@@H](N)CCSC)C(=O)N[C@@H](CCCNC(=N)N)C(=O)N[C@@H](Cc1c[nH]c2ccccc12)C(=O)N[C@@H](CO)C(=O)N[C@@H](CCCNC(=N)N)C(=O)N[C@@H](CCCCN)C(=O)N[C@@H](CCSC)C(=O)N1CCC[C@H]1C(=O)N[C@@H](CS)C(=O)N[C@H](C(=O)N[C@@H](CO)C(=O)O)C(C)C (H-MMRWSRKMPCVS-OH) | 105 nM | 7300 nM | 129 nM |  |  |  |
| CSCC[C@H](NC(=O)CN)C(=O)N[C@@H](CCCNC(=N)N)C(=O)N[C@@H](Cc1c[nH]c2ccccc12)C(=O)N[C@@H](CO)C(=O)N[C@@H](CCCNC(=N)N)C(=O)N[C@@H](CCCCN)C(=O)N[C@@H](CCSC)C(=O)N1CCC[C@H]1C(=O)N[C@@H](CS)C(=O)N[C@H](C(=O)N[C@@H](CO)C(=O)O)C(C)C (H-GMRWSRKMPCVS-OH) | 8730 nM | > 100000 nM | 6670 nM |  |  |  |
| CSCC[C@H](NC(=O)[C@H](N)CC(C)C)C(=O)N[C@@H](CCCNC(=N)N)C(=O)N[C@@H](Cc1c[nH]c2ccccc12)C(=O)N[C@@H](CO)C(=O)N[C@@H](CCCNC(=N)N)C(=O)N[C@@H](CCCCN)C(=O)N[C@@H](CCSC)C(=O)N1CCC[C@H]1C(=O)N[C@@H](CS)C(=O)N[C@H](C(=O)N[C@@H](CO)C(=O)O)C(C)C (H-[dL]MRWSRKMPCVS-OH) |  |  |  | Dose-Dependent Effect | Non-Toxic |  |
| CC[C@H](C)[C@H](NC(C)=O)C(=O)N[C@@H](CC(C)C)C(=O)N[C@@H](CCCNC(=N)N)C(=O)N[C@@H](Cc1c[nH]c2ccccc12)C(=O)N[C@@H](CO)C(=O)N[C@@H](CCCNC(=N)N)C(=O)N[C@@H](CCCCN)C(=O)N[C@@H](CC(C)C)C(=O)N1CCC[C@H]1C(=O)N[C@@H](CS)C(=O)N[C@H](C(=O)N[C@@H](CO)C(=O)O)C(C)C | 2660 nM | 42100 nM | 1660 nM |  |  |  |
| CC(C)C[C@H](NC(=O)[C@@H](N)C(C)C)C(=O)N[C@@H](CCCNC(=N)N)C(=O)N[C@@H](Cc1c[nH]c2ccccc12)C(=O)N[C@@H](CO)C(=O)N[C@@H](CCCNC(=N)N)C(=O)N[C@@H](CCCCN)C(=O)N[C@@H](CC(C)C)C(=O)N1CCC[C@H]1C(=O)N[C@@H](CS)C(=O)N[C@H](C(=O)N[C@@H](CO)C(=O)O)C(C)C | 298 nM | 4330 nM | 214 nM |  |  |  |
| CC[C@H](C)[C@H](N)C(=O)N[C@H](CC(C)C)C(=O)N[C@@H](CCCNC(=N)N)C(=O)N[C@@H](Cc1c[nH]c2ccccc12)C(=O)N[C@@H](CO)C(=O)N[C@@H](CCCNC(=N)N)C(=O)N[C@@H](CCCCN)C(=O)N[C@@H](CCSC)C(=O)N1CCC[C@H]1C(=O)N[C@@H](CS)C(=O)N[C@H](C(=O)N[C@@H](CO)C(=O)O)C(C)C | 991 nM | > 100000 nM | 934 nM |  |  |  |
| CC[C@@H](C)[C@@H](NC(C)=O)C(=O)N[C@@H](CC(C)C)C(=O)N[C@@H](CCCNC(=N)N)C(=O)N[C@@H](Cc1c[nH]c2ccccc12)C(=O)N[C@@H](CO)C(=O)N[C@@H](CCCNC(=N)N)C(=O)N[C@@H](CCCCN)C(=O)N[C@@H](CC(C)C)C(=O)N1CCC[C@H]1C(=O)N[C@@H](CS)C(=O)N[C@H](C(=O)N[C@@H](CO)C(=O)O)C(C)C | 7720 nM | 17200 nM | > 10000 nM |  |  |  |
| CSCC[C@H](NC(=O)[C@H](CCCCN)NC(=O)[C@H](CCCNC(=N)N)NC(=O)[C@H](CO)NC(=O)[C@H](Cc1c[nH]c2ccccc12)NC(=O)[C@H](CCCNC(=N)N)NC(=O)[C@H](CC(C)C)NC(=O)[C@H](N)CC(C)C)C(=O)N1CCC[C@H]1C(=O)N[C@@H](CS)C(=O)N[C@H](C(=O)N[C@@H](CO)C(=O)O)C(C)C (H-[dL]LRWSRKMPCVS-OH) | 310 nM | 3660 nM | 153 nM | Dose-Dependent Effect | Non-Toxic | 257 nM |
| CSCC[C@H](NC(=O)[C@H](CCCCN)NC(=O)[C@H](CCCNC(=N)N)NC(=O)[C@H](CO)NC(=O)[C@H](Cc1c[nH]c2ccccc12)NC(=O)[C@H](CCCNC(=N)N)NC(=O)[C@H](CC(C)C)NC(=O)[C@H](N)Cc1ccccc1)C(=O)N1CCC[C@H]1C(=O)N[C@@H](CS)C(=O)N[C@H](C(=O)N[C@@H](CO)C(=O)O)C(C)C | 1440 nM | > 100000 nM | 817 nM |  |  |  |
| CC(C)C[C@H](NC(=O)[C@H](N)C(C)C)C(=O)N[C@@H](CCCNC(=N)N)C(=O)N[C@@H](Cc1c[nH]c2ccccc12)C(=O)N[C@@H](CO)C(=O)N[C@@H](CCCNC(=N)N)C(=O)N[C@@H](CCCCN)C(=O)N[C@@H](CC(C)C)C(=O)N1CCC[C@H]1C(=O)N[C@@H](CS)C(=O)N[C@H](C(=O)N[C@@H](CO)C(=O)O)C(C)C | 921 nM |  | 696 nM |  |  |  |
| CSCC[C@H](NC(=O)[C@H](CCCCN)NC(=O)[C@H](CCCNC(=N)N)NC(=O)[C@H](CO)NC(=O)[C@H](Cc1c[nH]c2ccccc12)NC(=O)[C@H](CCCNC(=N)N)NC(=O)[C@H](CC(C)C)NC(=O)[C@@H](CO)NC(C)=O)C(=O)N1CCC[C@H]1C(=O)N[C@@H](CS)C(=O)N[C@H](C(=O)N[C@@H](CO)C(=O)O)C(C)C | 8620 nM | > 100000 nM | 775 nM |  |  |  |
| CC[C@@H](C)[C@@H](N)C(=O)N[C@@H](CC(C)C)C(=O)N[C@@H](CCCNC(=N)N)C(=O)N[C@@H](Cc1c[nH]c2ccccc12)C(=O)N[C@@H](CO)C(=O)N[C@@H](CCCNC(=N)N)C(=O)N[C@@H](CCCCN)C(=O)N[C@@H](CC(C)C)C(=O)N1CCC[C@H]1C(N)=O (H-[dI]LRWSRKLP-NH2) | 453 nM | 4540 nM | 551 nM | Dose-Dependent Effect | Non-Toxic | 118 nM |
| CSCC[C@H](NC(=O)[C@H](CCCCN)NC(=O)[C@H](CCCNC(=N)N)NC(=O)[C@H](CO)NC(=O)[C@H](Cc1c[nH]c2ccccc12)NC(=O)[C@H](CCCNC(=N)N)NC(=O)[C@H](CC(C)C)NC(=O)[C@H](CO)NC(C)=O)C(=O)N1CCC[C@H]1C(=O)N[C@@H](CS)C(=O)N[C@H](C(=O)N[C@@H](CO)C(=O)O)C(C)C | 16300 nM | > 100000 nM | 4060 nM |  |  |  |
| CSCC[C@H](NC(C)=O)C(=O)N[C@@H](CC(C)C)C(=O)N[C@@H](CCCNC(=N)N)C(=O)N[C@@H](Cc1c[nH]c2ccccc12)C(=O)N[C@@H](CO)C(=O)N[C@@H](CCCNC(=N)N)C(=O)N[C@@H](CCCCN)C(=O)N[C@@H](CC(C)C)C(=O)N1CCC[C@H]1C(=O)N[C@@H](CS)C(=O)N[C@H](C(=O)N[C@@H](CO)C(=O)O)C(C)C |  |  | > 10000 nM |  |  |  |
| c1cc(CN2CCCNCCNCCCNCC2)ccc1CN1CCCNCCNCCCNCC1 |  |  | 30 nM | Dose-Dependent Effect |  |  |
| CSCC[C@H](NC(=O)[C@H](N)Cc1ccccc1)C(=O)N[C@@H](CCCNC(=N)N)C(=O)N[C@@H](Cc1c[nH]c2ccccc12)C(=O)N[C@@H](CO)C(=O)N[C@@H](CCCNC(=N)N)C(=O)N[C@@H](CCCCN)C(=O)N[C@@H](CCSC)C(=O)N1CCC[C@H]1C(=O)N[C@@H](CS)C(=O)N[C@H](C(=O)N[C@@H](CO)C(=O)O)C(C)C | 1470 nM | > 100000 nM | 1690 nM | Dose-Dependent Effect |  |  |
| CC(C)C[C@H](NC(=O)[C@@H](NC(=O)[C@@H]1CCCN1C(=O)[C@@H](NC(=O)[C@H](CO)NC(=O)[C@@H](NC(=O)[C@H](CCC(N)=O)NC(=O)[C@@H]1CCCN1C(=O)[C@@H](NC(=O)[C@H](CCCCN)NC(=O)[C@H](CCCCN)NC(=O)[C@@H](NC(=O)[C@H](Cc1ccc(O)cc1)NC(=O)[C@H](CCCNC(=N)N)NC(=O)[C@@H](NC(=O)[C@@H](N)CC(C)C)C(C)C)[C@@H](C)O)C(C)C)C(C)C)[C@@H](C)O)[C@@H](C)O)C(=O)O (H-LVRYTKKVPQVSTPTL-OH) | 2600 nM | > 100000 nM | > 10000 nM |  |  |  |
| CC[C@H](C)[C@H](N)C(=O)N[C@H](CC(C)C)C(=O)N[C@@H](CCCNC(=N)N)C(=O)N[C@@H](Cc1c[nH]c2ccccc12)C(=O)N[C@@H](CO)C(=O)N[C@@H](CCCNC(=N)N)C(=O)N[C@@H](CCCCN)C(=O)N[C@@H](CC(C)C)C(=O)N1CCC[C@H]1C(=O)N[C@@H](CS)C(=O)N[C@H](C(=O)N[C@@H](CO)C(=O)O)C(C)C | 1730 nM | > 100000 nM | 436 nM |  |  |  |
| CSCC[C@@H](NC(C)=O)C(=O)N[C@@H](CC(C)C)C(=O)N[C@@H](CCCNC(=N)N)C(=O)N[C@@H](Cc1c[nH]c2ccccc12)C(=O)N[C@@H](CO)C(=O)N[C@@H](CCCNC(=N)N)C(=O)N[C@@H](CCCCN)C(=O)N[C@@H](CC(C)C)C(=O)N1CCC[C@H]1C(=O)N[C@@H](CS)C(=O)N[C@H](C(=O)N[C@@H](CO)C(=O)O)C(C)C |  |  | > 10000 nM |  |  |  |
